# Experimental data published in ChEMBL document CHEMBL6087486, “Monomeric or Homodimer Conjugates of Fibroblast Activation Protein Inhibitor and Cyanine 7 Bearing a Meso-Chloride as Near-Infrared Fluorescence Probes: Design, Synthesis, and Comparative In Vivo Imaging of Distinct Breast Cancer Subtypes” (J Med Chem, 2025).
# The source made the active and inactive calls. The calls are words filed in the database; no cut-off is given here.
# Assays:
# MCF7 [1] = experiment: Cytotoxicity against human MCF7 cells at >25 uM after 24 hrs by CCK8 assay; type: functional, cell-based
# MDA-MB-231 [2] = experiment: Cytotoxicity against human MDA-MB-231 cells at >25 uM after 24 hrs by CCK8 assay; type: functional, cell-based
# MCF7 [3] = experiment: Cytotoxicity against human MCF7 cells at; type: functional, cell-based; settings: dose < 2.0 µM, time 24.0 hrs
# [4] = Ratio of drug uptake in tumor to liver of NCG mouse xenografted with human MCF7 cells at 15 uM, iv measured after 72 hrs by IVIS analysis; type: ADME, organism-based; settings: in vivo
# [5] = Biodistribution in tumor of NCG mouse xenografted with human MDA-MB-231 cells 15 uM, iv measured upto 72 hrs by IVIS analysis; type: ADME, organism-based, Neoplasm; settings: in vivo
# [6] = Metabolic stability in mouse liver microsomes assessed as hepatic clearance rate; type: ADME, Microsome; settings: read-out: CLH
# [7] = Metabolic stability in human liver microsomes assessed as hepatic clearance rate; type: ADME, Microsome; settings: read-out: CLH
# [8] = Absorption property of compound in methanol assessed as maximal wavelength at 0.5 to 4 uM by UV-vis spectrophotometry; type: physicochemical; settings: dose 0.5-4 µM
# [9] = Ratio of drug uptake in tumor to liver of NCG mouse xenografted with human MDA-MB-231 cells at 15 uM, iv measured upto 72 hrs by IVIS analysis; type: ADME, organism-based; settings: in vivo
# [10] = Apparent volume of distribution in ICR mouse at 2 mg/kg, iv measured upto 24 hrs by LC-MS/MS analysis; type: ADME, organism-based; settings: in vivo, read-out: Vz
# [11] = Volume of distribution at steady state in ICR mouse at 2 mg/kg, iv measured upto 24 hrs by LC-MS/MS analysis; type: ADME, organism-based; settings: in vivo, read-out: Vdss
# [12] = Biodistribution in tumor of NCG mouse xenografted with human MCF7 cells at 15 uM, iv measured for 0.5 to 72 hrs by IVIS analysis; type: ADME, organism-based, Neoplasm; settings: in vivo, time 0.5-72 hrs
# [13] = Biodistribution in tumor of NCG mouse xenografted with human MCF7 cells assessed as increase in retention time at 15 uM, iv measured for 0.5 to 72 hrs by IVIS analysis; type: ADME, organism-based, Neoplasm; settings: in vivo, time 0.5-72 hrs
# [14] = MRT (0 to infinity) in ICR mouse at 2 mg/kg, iv measured upto 24 hrs by LC-MS/MS analysis; type: ADME, organism-based; settings: in vivo
# [15] = Metabolic stability in mouse liver microsomes assessed as intrinsic clearance; type: ADME, Microsome; settings: read-out: CLH
# MCF7 [16] = experiment: Cytotoxicity against human MCF7 cells assessed as survival rate at 20 uM after 24 hrs by CCK8 assay relative to control; type: functional; settings: read-out: Survival
# [17] = Tlast in ICR mouse at 2 mg/kg, iv measured upto 24 hrs by LC-MS/MS analysis; type: ADME, organism-based; settings: in vivo
# [18] = Clearance in ICR mouse at 2 mg/kg, iv measured upto 24 hrs by LC-MS/MS analysis; type: ADME, organism-based; settings: in vivo
# [19] = Drug uptake in human MCF7 cells assessed as fold increase in fluorescence intensity at 2 uM incubated for 2 hrs by CLSM analysis relative to control; type: functional
# [20] = Metabolic stability in human liver microsomes assessed as intrinsic clearance; type: ADME, Microsome; settings: read-out: CLH
# [21] = Biodistribution in tumor of NCG mouse xenografted with human MDA-MB-231 cells assessed as fluorescence intensity at 15 uM, iv measured after 4 hrs by IVIS analysis; type: ADME, organism-based, Neoplasm; settings: in vivo
# MDA-MB-231 [22] = experiment: Cytotoxicity against human MDA-MB-231 cells at; type: functional, cell-based; settings: dose < 2.0 µM, time 24.0 hrs
# [23] = C0 in ICR mouse at 2 mg/kg, iv measured upto 24 hrs by LC-MS/MS analysis; type: ADME, organism-based; settings: in vivo
# [24] = Emission property of compound in methanol assessed as maximal wavelength at 0.5 to 4 uM by […]; type: physicochemical; settings: dose 0.5-4 µM
# [25] = Biodistribution in tumor of NCG mouse xenografted with human MDA-MB-231 cells assessed as increase in retention time at 15 uM, iv measured for 0.5 to 72 hrs by IVIS analysis; type: ADME, organism-based, Neoplasm; settings: in vivo, time 0.5-72 hrs
# MDA-MB-231 [26] = experiment: Cytotoxicity against human MDA-MB-231 cells assessed as survival rate at 20 uM after 24 hrs by CCK8 assay relative to control; type: functional; settings: read-out: Survival
# [27] = Biodistribution in tumor of NCG mouse xenografted with human MDA-MB-231 cells assessed as maximum fluorescence intensity at 15 uM, iv measured for 2 to 48 hrs by IVIS analysis; type: ADME, organism-based, Neoplasm; settings: in vivo, time 2-48 hrs
# [28] = Biodistribution in liver of NCG mouse xenografted with human MCF7 cells at 15 uM, iv measured after 4 hrs by IVIS analysis; type: ADME, organism-based; settings: in vivo
# [29] = Drug uptake in human MDA-MB-231 cells assessed as fold increase in fluorescence intensity at 2 uM incubated for 2 hrs by CLSM analysis relative to control; type: functional
# [30] = Metabolic stability in mouse liver microsomes assessed as half life; type: ADME, Microsome
# [31] = Metabolic stability in human liver microsomes assessed as half life; type: ADME, Microsome
# [32] = MRT (0 to t) in ICR mouse at 2 mg/kg, iv measured upto 24 hrs by LC-MS/MS analysis; type: ADME, organism-based; settings: in vivo
# [33] = Half life in ICR mouse at 2 mg/kg, iv measured upto 24 hrs by LC-MS/MS analysis; type: ADME, organism-based; settings: in vivo
# [34] = AUC (0 to t) in ICR mouse at 2 mg/kg, iv measured upto 24 hrs by LC-MS/MS analysis; type: ADME, organism-based; settings: in vivo
# [35] = AUC (0 to infinity) in ICR mouse at 2 mg/kg, iv measured upto 24 hrs by LC-MS/MS analysis; type: ADME, organism-based; settings: in vivo
# MCF7 [36] = experiment: Antitumor activity against human MCF7 cells xenografted in mouse assessed as obvious effect at 10 to 20 mg/kg, iv administered on days 1, 6, 11 and 16 measured on day 21; type: functional, organism-based; settings: dose 10-20 mg/kg, time 21.0 day
# MDA-MB-231 [37] = experiment: Cytotoxicity against human MDA-MB-231 cells assessed as survival rate upto 20 uM after 24 hrs by CCK8 assay relative to control; type: functional; settings: up to 20 µM
# [38] = Biodistribution in tumor of NCG mouse xenografted with human MCF7 cells at 15 uM, iv measured after 1 to 2 hrs by IVIS analysis; type: ADME, organism-based, Neoplasm; settings: in vivo, time 1-2 hrs
# [39] = Toxicity in mouse xenografted with human MCF7 cells assessed as change in body weight at 10 to 20 mg/kg, iv administered on days 1, 6, 11 and 16 measured for 21 days; type: organism-based; settings: in vivo, 504 h, dose 10-20 mg/kg, time 21 day
# MCF7 [40] = experiment: Cytotoxicity against human MCF7 cells at 20 uM after 24 hrs by CCK8 assay relative to control; type: functional
# [41] = Biodistribution in tumor of NCG mouse xenografted with human MDA-MB-231 cells at 15 uM, iv measured for 24 hrs by IVIS analysis; type: ADME, organism-based, Neoplasm; settings: in vivo
# [42] = Biodistribution in liver of NCG mouse xenografted with human MCF7 cells at 15 uM, iv measured after 0.5 hrs by IVIS analysis; type: ADME, organism-based; settings: in vivo
# MCF7 [43] = experiment: Antitumor activity against human MCF7 cells xenografted in mouse assessed as tumor growth inhibition administered intravenously on days 1, 6, 11 and 16 measured on day 21; type: functional; settings: dose 10-20 mg/kg, route iv, time 21.0 day
# MCF7 [44] = experiment: Antitumor activity against human MCF7 cells xenografted in mouse assessed as tumor shrinkage at 20 mg/kg, iv administered on days 1, 6, 11 and 16 measured on day 10; type: functional, organism-based; settings: time 10.0 day
# [45] = Biodistribution in tumor of NCG mouse xenografted with human MDA-MB-231 cells assessed as maximum fluorescence intensity at 15 uM, iv measured for 24 hrs by IVIS analysis; type: ADME, organism-based, Neoplasm; settings: in vivo
# MCF7 [46] = experiment: Antitumor activity against human MCF7 cells xenografted in mouse assessed as decrease in tumor volume at 10 mg/kg, iv administered on days 1, 6, 11 and 16 measured on day 10; type: functional, organism-based; settings: time 10.0 day
# [47] = Ratio of drug uptake in tumor to liver of NCG mouse xenografted with human MDA-MB-231 cells at 15 uM, iv measured after 48 hrs by IVIS analysis; type: ADME, organism-based; settings: in vivo
# [48] = Biodistribution in tumor of NCG mouse xenografted with human MCF7 cells assessed as maximum fluorescence intensity at 15 uM, iv measured after 8 hrs by IVIS analysis; type: ADME, organism-based, Neoplasm; settings: in vivo
# [49] = Biodistribution in liver of NCG mouse xenografted with human MDA-MB-231 cells at 15 uM, iv measured for 24 hrs by IVIS analysis; type: ADME, organism-based; settings: in vivo
# MCF7 [50] = experiment: Cytotoxicity against human MCF7 cells at >=5 uM after 24 hrs by CCK8 assay; type: functional, cell-based
SMILES,Activity (MCF7 [1]),Activity (MDA-MB-231 [2]),Activity (MCF7 [3]),Ratio [4],CLint scaled [6],CLint scaled [7],Activity [8],Vd [10],Vd [11],MRT inf [14],microsomal CLint [15],Tlast [17],clearance [18],fold change (FC) [19],microsomal CLint [20],Activity (MDA-MB-231 [22]),C0 at 24 h [23],Activity [24],fold change (FC) [29],half-life [30],also measured
CN(CCCN1CCN(C(=O)OC(C)(C)C)CC1)c1ccc2nccc(C(=O)NCC(=O)N3CC(F)(F)C[C@H]3C#N)c2c1,Active,Active,–,–,–,–,–,–,–,–,–,–,–,–,–,–,–,–,–,–,–
CN(CCCN1CCN(C(=O)CCOCCOCCOCCOCCn2cc(CCCN3/C(=C/C=C4\CCCC(/C=C/C5=[N+](CCCc6cn(CCOCCOCCOCCOCCC(=O)N7CCN(CCCN(C)c8ccc9nccc(C(=O)NCC(=O)N%10CC(F)(F)C[C@H]%10C#N)c9c8)CC7)nn6)c6ccccc6C5(C)C)=C4Cl)C(C)(C)c4ccccc43)nn2)CC1)c1ccc2nccc(C(=O)NCC(=O)N3CC(F)(F)C[C@H]3C#N)c2c1,–,–,inactive,2.07,1240 mL/min/kg,387 mL/min/kg,784 nm,9.15 L/kg,0.583 L/kg,63.6 min,313 µL/min/mg,24 h,9 mL/min/kg,45,430 µL/min/mg,inactive,16800 ng/mL,823 nm,81,4.4 min,Drug uptake [5]: Active; Ratio [9]: > 3; Drug uptake [12]: Active; Drug uptake [13]: Active; viability at 20 µM (MCF7 [16]): 60%; Flu intensity [21]: > 2 10^8No_unit; Drug uptake [25]: Active; viability at 20 µM (MDA-MB-231 [26]): 67%; Flu intensity [27]: 2.5 10^8No_unit; Drug uptake [28]: Not_active; half-life [31]: 3.2 min; MRT last at 24 h [32]: 36.2 min; half-life [33]: 690 min; AUC(0-t) at 24 h [34]: 3600 ng·h/mL; AUC(0-inf) [35]: 3650 ng·h/mL
C#CCCCN1/C(=C/C=C2\CCCC(/C=C/C3=[N+](CCCc4cn(CCOCCOCCOCCOCCC(=O)N5CCN(CCCN(C)c6ccc7nccc(C(=O)NCC(=O)N8CC(F)(F)C[C@H]8C#N)c7c6)CC5)nn4)c4ccccc4C3(C)C)=C2Cl)C(C)(C)c2ccccc21,–,–,inactive,2.43,1290 mL/min/kg,228 mL/min/kg,783 nm,3.92 L/kg,2.45 L/kg,11.4 min,325 µL/min/mg,1.5 h,204 mL/min/kg,280,253 µL/min/mg,inactive,829 ng/mL,820 nm,431,4.3 min,Activity (MCF7 [36]): Active; Survival (MDA-MB-231 [37]): ~80%; Drug uptake [38]: Active; Activity [39]: Non-toxic; Activity (MCF7 [40]): 4.5%; Drug uptake [41]: Active; Drug uptake [42]: Not_active; inhibition (MCF7 [43]): Dose-dependent-effect; Activity (MCF7 [44]): Active; Flu intensity [45]: 8.43 10^7No_unit; Activity (MCF7 [46]): inactive; Ratio [47]: 4.47; Flu intensity [48]: 6.13 10^7No_unit; half-life [31]: 5.5 min; Drug uptake [49]: Not_active; MRT last at 24 h [32]: 10.4 min; Activity (MCF7 [50]): Active; half-life [33]: 12.5 min; AUC(0-t) at 24 h [34]: 165 ng·h/mL; AUC(0-inf) [35]: 166 ng·h/mL
CN(CCCN1CCN(C(=O)CN2CCN(CC(=O)O)CCN(CC(=O)O)CCN(CC(=O)O)CC2)CC1)c1ccc2nccc(C(=O)NCC(=O)N3CC(F)(F)C[C@H]3C#N)c2c1,Active,Active,–,–,–,–,–,–,–,–,–,–,–,–,–,–,–,–,–,–,–
